The test system of experiment [1] is T1, Plasmodium falciparum Dd2.
T1 construct: Dd2
Briefly: microbe, parasite or virus in culture. Also noted: species or system Plasmodium falciparum Dd2 in human erythrocytes; Asexual blood-stage parasite proliferation, SYBR Green I DNA fluorescence. Particulars: DD2, Erythrocyte, 72 h, read-out: IC50 values (nM). Here is the method:
Powershot G10 camera attached to the microscope and imported in Adobe Photoshop and Illustrator for image sizing and figure generation, respectively. SYBR Green cell proliferation assay. Compounds were tested for activity against asexual blood stage parasites using a previously described screening method (Plouffe et al., 2008). […] Toxoplasma gondii culturing and assay methods. The tachyzoite stage of Toxoplasma gondii (RH1, GFP-luc) was maintained by serial passage in human foreskin fibroblasts (HFF) cultured in Hank’s Buffered Salt Solution (HBSS) supplemented with 10% FBS, 2 mM L-glutamine, and 100 μg penicillin/100 μg streptomycin per milliliter maintained at 37 °C and 5% CO2. Parasites were harvested for use in assays by syringe lysis of infected HFF monolayers. Parasites were then centrifuged at 1,200 × g for 6 min and resuspended in HBSS supplemented with 10 mM Hepes, pH 7.0, and 1% (v/v) dialyzed FBS. All buffers were filter sterilized by passage through a […] Millipore Syringe Filter. Approximately 50,000 parasites and 5,000 HFF cell were incubated with compounds for 48 hours at 37 °C. Parasite and host cell proliferation rates were then determined using Bright-Glo® and CellTiter-Glo® (Promega). Maintenance, synchronization and imaging of erythrocytic stage P. falciparum cultures. A clonal stock of the P. falciparum line Dd2 (parental clone) was established by limiting dilution from a Dd2 isolate (MRA-156) obtained from the Malaria Research and Reference Reagent Resource Center (MR4; American Type Culture Collection), and used throughout these studies. All P. falciparum parasites were cultured in human erythrocytes and complete culturing media (CM) as previously described (Dharia et al., 2009). Highly synchronous cultures were achieved using the sorbitol synchronization method (Lambros and Vanderberg, 1979). Visualization of parasites were performed on Giemsa-stained thin blood smears under a 100x oil immersion objective on a Zeiss Primo Star light microscope. Digital images were captured using a Canon

Experiment [2] concerns the target T2, human lysyl-tRNA synthetase (human Krs1) (Homo sapiens, UniProt Q15046).
T2 construct: gene KARS1; purified recombinant human enzyme (Origene TP300311)
Briefly: Transcreener AMP fluorescence polarization aminoacylation assay with recombinant enzyme; weak inhibition. In kind it is biochemical. For orientation: In fluorescence polarisation assays a small probe gives low polarisation when free and higher when bound to something large.

For experiment [3], the target named is T3, P. falciparum cytosolic lysyl-tRNA synthetase (PfKrs1) (Plasmodium falciparum, UniProt Q8IDJ8).
T3 construct: gene PF3D7_1350100; recombinant PF13_0262, codon-optimized, in pET-28a(+), expressed in E. coli and purified
T3 sequence (Q8IDJ8 entry or part of it): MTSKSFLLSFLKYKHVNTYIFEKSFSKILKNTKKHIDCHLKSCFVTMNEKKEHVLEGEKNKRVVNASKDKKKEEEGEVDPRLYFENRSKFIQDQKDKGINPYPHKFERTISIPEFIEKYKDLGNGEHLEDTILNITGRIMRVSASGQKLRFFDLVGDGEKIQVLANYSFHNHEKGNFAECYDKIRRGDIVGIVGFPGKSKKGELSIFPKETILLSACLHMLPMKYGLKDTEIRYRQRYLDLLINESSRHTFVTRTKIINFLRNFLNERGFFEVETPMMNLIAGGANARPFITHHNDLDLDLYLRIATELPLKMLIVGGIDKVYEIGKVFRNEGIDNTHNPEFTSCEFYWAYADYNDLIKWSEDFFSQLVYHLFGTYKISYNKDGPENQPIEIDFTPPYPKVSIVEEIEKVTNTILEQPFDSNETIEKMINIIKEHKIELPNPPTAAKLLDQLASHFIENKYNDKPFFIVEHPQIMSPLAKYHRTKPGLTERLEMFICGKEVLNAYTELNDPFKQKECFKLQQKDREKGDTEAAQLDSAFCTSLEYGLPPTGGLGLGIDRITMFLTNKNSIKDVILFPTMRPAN
Briefly: Transcreener AMP fluorescence polarization aminoacylation assay with recombinant enzyme. In kind it is biochemical.

The subject of experiment [4] is T4, Saccharomyces cerevisiae BY4743Δ8.
T4 construct: BY4743Δ8 (eight drug-resistance genes deleted: SNQ2, PDR5, YOR1, PDR1, PDR2, PDR3, YAP1, YRM1)
Briefly: microbe, parasite or virus in culture. Also noted: Yeast growth inhibition, optical density at 600 nm, dose response. Particulars: synthetic media, no added lysine, read-out: Cladosporin IC50 (µM) Synthetic media. Here is the method:
SUPPLEMENTAL FIGURES Figure S1 | Cladosporin inhibition of S. cerevisiae wild type strain BY4743 and a drug efflux mutant strain BY4743Δ8, related to Figure 1. Yeast growth in the presence of cladosporin was measured by optical density at 600 nm (OD600) and the 30% inhibitory concentration (IC30) and 50% inhibitory concentration (IC50) of cell growth were determined. […] Data were collected from duplicate experiments, normalized with a DMSO control and expressed as the means±SD. A logistic regression curve fit algorithm on the recorded OD600 values was performed to determine the aforementioned IC30 and IC50 values. Strain BY4743Δ8, derived from BY4741 but deleted for eight genes involved in drug resistance (efflux pumps, SNQ2, PDR5, YOR1; transcription factors, PDR1, PDR2, PDR3, YAP1, YRM1) was incubated in 2.5% ethylmethanesulfonate until only 50% of the cells formed colonies. A total of 2 × 10^7 mutagenized CMB970 cells were plated on two 14 cm dishes with synthetic complete medium (0.7 g/l Difco Yeast Nitrogen Base without amino acids, 0.79 g/l MPbio CSM amino acid mixture, 2% glucose) containing 50 μM cladosporin. After 4 days, 37 resistant colonies appeared. […] Of these 37, ten colonies contained nonsynonymous mutations in the KRS1 open reading frame. […] Curves were calculated by taking the 16 hr OD600 measurements and applying a logistic regression curve fit. […]

Experiment [5] shares this test system. Briefly: microbe, parasite or virus in culture. Set-up: Yeast growth inhibition, optical density at 600 nm, dose response. Particulars: rich media, no added lysine, read-out: Cladosporin IC50 (µM) Rich media. Here is the method: SUPPLEMENTAL FIGURES Figure S1 | Cladosporin inhibition of S. cerevisiae wild type strain BY4743 and a drug efflux mutant strain BY4743Δ8, related to Figure 1. Yeast growth in the presence of cladosporin was measured by optical density at 600 nm (OD600) and the 30% inhibitory concentration (IC30) and 50% inhibitory concentration (IC50) of cell growth were determined. Assay plates seeded with the respective strains were grown in rich medium and incubated […] against a 12-point dilution series of cladosporin (0-200 µM). Data were collected from duplicate experiments, normalized with a DMSO control and expressed as the means±SD. A logistic regression curve fit algorithm on the recorded OD600 values was performed to determine the aforementioned IC30 and IC50 values. Strain BY4743Δ8, derived from BY4741 but deleted for eight genes involved in drug resistance (efflux pumps, SNQ2, PDR5, YOR1; transcription factors, PDR1, PDR2, PDR3, YAP1, YRM1) was incubated in 2.5% ethylmethanesulfonate until only 50% of the cells formed colonies. […] Of these 37, ten colonies contained nonsynonymous mutations in the KRS1 open reading frame. […] Curves were calculated by taking the 16 hr OD600 measurements and applying a logistic regression curve fit. […]

Read-outs that look alike come from different tables or passages of the source. *1 amine or outer side, *2 acyl side, *3 side chain or, on linkers, in order; H or OH if unused. Where a SMILES comes first, the peptide text is derived from it. [ ]: non-standard residue; d: D form. X1 = CC(C)([C@@H]1CO1)n1cc([C@@H](O)[C@H](CC(=O)[*:2])N[*:1])c2ccccc21; NMeLeu(5-OH,4R) = CN[C@@H](C[C@@H](C)CO)C(=O)O; Nle(4R-Me-5-ene) = C=C[C@H](C)C[C@H](N)C(=O)O; Phe(βR-OMe) = CO[C@H](c1ccccc1)[C@H](N)C(=O)O; NMeL = CN[C@@H](CC(C)C)C(=O)O

T2 sequence (Q15046 2-597): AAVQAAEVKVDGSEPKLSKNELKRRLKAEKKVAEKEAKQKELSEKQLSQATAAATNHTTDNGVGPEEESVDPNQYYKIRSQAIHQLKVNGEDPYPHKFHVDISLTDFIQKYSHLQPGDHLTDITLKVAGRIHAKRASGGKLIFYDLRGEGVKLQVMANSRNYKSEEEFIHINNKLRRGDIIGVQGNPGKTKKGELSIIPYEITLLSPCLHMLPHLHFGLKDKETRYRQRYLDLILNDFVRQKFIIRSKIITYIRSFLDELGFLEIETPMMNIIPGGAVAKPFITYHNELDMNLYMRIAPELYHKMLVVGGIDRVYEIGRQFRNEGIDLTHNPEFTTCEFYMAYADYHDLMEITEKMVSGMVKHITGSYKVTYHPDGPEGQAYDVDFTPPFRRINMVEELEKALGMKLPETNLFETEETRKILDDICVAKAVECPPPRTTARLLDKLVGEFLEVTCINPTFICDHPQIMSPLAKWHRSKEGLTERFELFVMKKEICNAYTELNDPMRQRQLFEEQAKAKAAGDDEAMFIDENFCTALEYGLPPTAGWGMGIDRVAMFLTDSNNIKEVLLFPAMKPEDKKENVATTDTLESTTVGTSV

Broadly, the IC50 is the concentration that inhibits the measured activity by half. As to `O[C@@H](c1cc(C(F)(F)F)nc2c(C(F)(F)F)cccc12)[C@H]1CCCCN1` (racemic) [MFQ, mefloquine], the IC50 in experiment [1] was found to be 9 nM. Consider `O=C1C(O)=C([C@H]2CC[C@H](c3ccc(Cl)cc3)CC2)C(=O)c2ccccc21` [ATQ, atovaquone], for which, in experiment [1], the IC50 amounted to 0.8 ± 0.2 nM. As for `C=C[C@H](C)C[C@@H]1NC(=O)[C@H](CC(C)C)N(C)C(=O)[C@H](C(C)C)NC(=O)[C@H]([C@H](OC)c2ccccc2)NC(=O)[C@H](C)NC(=O)[C@H](C[C@@H](C)CO)N(C)C(=O)C[C@@H]([C@H](O)c2cn(C(C)(C)[C@@H]3CO3)c3ccccc23)NC1=O` [CycA, cyclomarin A] (cyclo(A[Phe(βR-OMe)]V[NMeL][Nle(4R-Me-5-ene)][X1][NMeLeu(5-OH,4R)])), in experiment [1], the IC50 worked out at 48.8 ± 10.1 nM. Still for that read-out and setting: the result for `CCc1nc(N)nc(N)c1-c1ccc(Cl)cc1` [PYR, pyrimethamine] reads > 10000 nM. For `C[C@H]1CCC[C@H](C[C@H]2Cc3cc(O)cc(O)c3C(=O)O2)O1` [cladosporin], the IC50 in experiment [2] was > 20000 nM; in experiment [3], 61 nM; in experiment [4] it was 18.4 µM; in experiment [5] it was 7.92 µM.

These data come from paper PMC3391680, “Selective and Specific Inhibition of the Plasmodium falciparum Lysyl-tRNA Synthetase by the Fungal Secondary Metabolite Cladosporin” (Cell Host & Microbe, 2012).
